Literature values in PubChem BioAssay AID1259409 (Chemical Carcinogenesis Research Information System (CCRIS), 2018).

System: rodent chemically induced tumor inhibition, incidence and multiplicity
Test: CCRIS tumor inhibitor studies

COc1cc(/C=C/C(=O)CC(=O)/C=C/c2ccc(O)c(OC)c2)ccc1O
tumour outcome (control, treated, inhibition, significance) (Carcinogen: 1,2-DIMETHYLHYDRAZINE [540-73-8], Species: RAT, Strain/Sex: WISTAR, Target Tissue: Type of Lesion: COLON, Dose [Carcinogen]: 20 MG/KG): 81.3%, 61%, 25%, p<0.05 | tumour outcome (control, treated, inhibition, significance) (Carcinogen: 2,2'-DIHYDROXY-DI-N-PROPYLNITROSAMINE, 53609-64-6, N-ETHYL-N-HYDROXYETHYLNITROSAMINE, 13147-25-6, 3,2'-DIMETHYL-1,4-, Carcinogen: 2,2'-DIHYDROXY-DI-N-PROPYLNITROSAMINE, 53609-64-6, N-ETHYL-N-HYDROXYETHYLNITROSAMINE, 13147-25-6, 3,2'-DIMETHYL-1,4-, Dose [Inhibitor]: 0, 1% IN DIET FOR 4 WK BEGINNING 1 D PRIOR TO FIRST CARCINOGEN DOSE (STUDY DURATION: 36 WK), Route [Inhibitor]: ORAL, Species: RAT, Strain/Sex: F344/MALE, Target Tissue: Type of Lesion: KIDNEY: ADENOMA, Dose [Carcinogen]: 1000 MG/KG BW DHPN TWICE, 1500 MG/KG EHEN TWICE, 75 MG/KG BW DMAB 3 TIMES, SEQUENTIALLY OVER 3 WK, Promoter: NONE USED): 6/10 (60%), 6/13 (46%), 23%, not significant | tumour outcome (control, treated, inhibition, significance) (Carcinogen: 2,2'-DIHYDROXY-DI-N-PROPYLNITROSAMINE, 53609-64-6, N-ETHYL-N-HYDROXYETHYLNITROSAMINE, 13147-25-6, 3,2'-DIMETHYL-1,4-, Carcinogen: 2,2'-DIHYDROXY-DI-N-PROPYLNITROSAMINE, 53609-64-6, N-ETHYL-N-HYDROXYETHYLNITROSAMINE, 13147-25-6, 3,2'-DIMETHYL-1,4-, Dose [Inhibitor]: 0, 1% IN DIET FOR 4 WK BEGINNING 1 D PRIOR TO FIRST CARCINOGEN DOSE (STUDY DURATION: 36 WK), Route [Inhibitor]: ORAL, Species: RAT, Strain/Sex: F344/MALE, Target Tissue: Type of Lesion: LUNG: ADENOMA, Dose [Carcinogen]: 1000 MG/KG BW DHPN TWICE, 1500 MG/KG EHEN TWICE, 75 MG/KG BW DMAB 3 TIMES, SEQUENTIALLY OVER 3 WK, Promoter: NONE USED): 5/10 (50%), 10/13 (77%), -54%, not significant | tumour outcome (control, treated, inhibition, significance) (Carcinogen: 4-NITROQUINOLINE-1-OXIDE, 56-57-5, Dose [Inhibitor]: 0, 500 PPM IN DIET FOR 10 WK BEGINNING 1 WK PRIOR TO CARCINOGEN TREATMENT (STUDY DURATION: 32 WK), Route [Inhibitor]: ORAL, Species: RAT, Strain/Sex: F344/MALE, Target Tissue: Type of Lesion: TONGUE: CARCINOMA, Dose [Carcinogen]: 20 PPM IN DRINKING WATER FOR 8 WK, Promoter: NONE USED): 13/24 (54%), 1/19 (5%), 91%, p<0.05 | tumour outcome (control, treated, inhibition, significance) (Carcinogen: 4-NITROQUINOLINE-1-OXIDE, 56-57-5, Dose [Inhibitor]: 0, 500 PPM IN DIET FOR 10 WK BEGINNING 1 WK PRIOR TO CARCINOGEN TREATMENT (STUDY DURATION: 32 WK), Route [Inhibitor]: ORAL, Species: RAT, Strain/Sex: F344/MALE, Target Tissue: Type of Lesion: TONGUE: PAPILLOMA, Dose [Carcinogen]: 20 PPM IN DRINKING WATER FOR 8 WK, Promoter: NONE USED): 4/24 (17%), 0/19 (0%), 100%, not significant | tumour outcome (control, treated, inhibition, significance) (Carcinogen: 4-NITROQUINOLINE-1-OXIDE, 56-57-5, Dose [Inhibitor]: 0, 500 PPM IN DIET FOR 22 WK BEGINNING 1 WK POST CARCINOGEN TREATMENT (STUDY DURATION: 32 WK), Route [Inhibitor]: ORAL, Species: RAT, Strain/Sex: F344/MALE, Target Tissue: Type of Lesion: TONGUE: CARCINOMA, Dose [Carcinogen]: 20 PPM IN DRINKING WATER FOR 8 WK, Promoter: NONE USED): 13/24 (54%), 3/20 (15%), 72%, p<0.05 | tumour outcome (control, treated, inhibition, significance) (Carcinogen: 4-NITROQUINOLINE-1-OXIDE, 56-57-5, Dose [Inhibitor]: 0, 500 PPM IN DIET FOR 22 WK BEGINNING 1 WK POST CARCINOGEN TREATMENT (STUDY DURATION: 32 WK), Route [Inhibitor]: ORAL, Species: RAT, Strain/Sex: F344/MALE, Target Tissue: Type of Lesion: TONGUE: PAPILLOMA, Dose [Carcinogen]: 20 PPM IN DRINKING WATER FOR 8 WK, Promoter: NONE USED): 4/24 (17%), 2/20 (10%), 41%, not significant | tumour outcome (control, treated, inhibition, significance) (Carcinogen: 7,12-DIMETHYLBENZ[A]ANTHRACENE, 57-97-6, Dose [Inhibitor]: 0: 5% IN DIET FOR DURATION OF STUDY BEGINNING 2 WK PRIOR TO CARCINOGEN DOSE (STUDY DURATION: 6 MO), Route [Inhibitor]: ORAL, Species: RAT, Strain/Sex: WISTAR/FEMALE, Target Tissue: Type of Lesion: MAMMARY GLAND: TUMOR, Dose [Carcinogen]: 10 MG IN PEANUT OIL INJECTED INTO SUBCUTANEOUS POUCH CREATED IN THE 5TH AND 6TH MAMMARY GLAND REGION, Promoter: NONE USED): 20/20 (100%), 5/20 (25%), 75%, p<0.001 | tumour outcome (control, treated, inhibition, significance) (Carcinogen: 7,12-DIMETHYLBENZ[A]ANTHRACENE, 57-97-6, Dose [Inhibitor]: 0, 2% IN DIET FOR 22 WK BEGINNING 2 WK PRIOR TO CARCINOGEN DOSE (STUDY DURATION: 22 WK), Route [Inhibitor]: ORAL, Species: MOUSE, Strain/Sex: SENCAR/FEMALE, Target Tissue: Type of Lesion: LYMPHATIC SYSTEM:LYMPHOMA OR LEUKEMIA, Dose [Carcinogen]: 1 MG IN 0.1 ML CORN OIL 1/WK FOR 5 WK, Promoter: NONE USED): 45%, 21%, 53%, p<0.05 | tumour outcome (control, treated, inhibition, significance) (Carcinogen: 7,12-DIMETHYLBENZ[A]ANTHRACENE, 57-97-6, Dose [Inhibitor]: 0, 2% IN DIET FOR 22 WK BEGINNING 2 WK PRIOR TO CARCINOGEN DOSE (STUDY DURATION: 22 WK), Route [Inhibitor]: ORAL, Species: MOUSE, Strain/Sex: SENCAR/FEMALE, Target Tissue: Type of Lesion: MAMMARY GLAND: TUMOR, Dose [Carcinogen]: 1 MG IN 0.1 ML CORN OIL 1/WK FOR 5 WK, Promoter: NONE USED): 68%, 78%, -15%, not significant | tumour outcome (control, treated, inhibition, significance) (Carcinogen: 7,12-DIMETHYLBENZ[A]ANTHRACENE, 57-97-6, Dose [Inhibitor]: 0, 2% IN DIET FOR 22 WK BEGINNING 2 WK PRIOR TO CARCINOGEN DOSE (STUDY DURATION: 22 WK), Route [Inhibitor]: ORAL, Species: MOUSE, Strain/Sex: SENCAR/FEMALE, Target Tissue: Type of Lesion: OVARY:TUMOR, Dose [Carcinogen]: 1 MG IN 0.1 ML CORN OIL 1/WK FOR 5 WK, Promoter: NONE USED): 20%, 8%, 60%, p<0.1 | tumour outcome (control, treated, inhibition, significance) (Carcinogen: 7,12-DIMETHYLBENZ[A]ANTHRACENE, 57-97-6, Dose [Inhibitor]: 0, 3 UMOL IN ACETONE 1/WK FOR 10 WK APPLIED 5 MIN PRIOR TO EACH CARCINOGEN DOSE (STUDY DURATION: 26 WK), Route [Inhibitor]: DERMAL, Species: MOUSE, Strain/Sex: CD-1/FEMALE, Target Tissue: Type of Lesion: SKIN: TUMORS, Dose [Carcinogen]: 2 NMOL 1/WK FOR 10 WK, Promoter: 12-O-TETRADECANOYLPHORBOL-13-ACETATE, 16561-29-8): 100%, 98%, 2%, not calculated | tumour outcome (control, treated, inhibition, significance) (Carcinogen: 7,12-DIMETHYLBENZ[A]ANTHRACENE, 57-97-6, Dose [Inhibitor]: 0, 10 UMOL IN ACETONE 1/WK FOR 10 WK APPLIED 5 MIN PRIOR TO EACH CARCINOGEN DOSE (STUDY DURATION: 26 WK), Route [Inhibitor]: DERMAL, Species: MOUSE, Strain/Sex: CD-1/FEMALE, Target Tissue: Type of Lesion: SKIN: TUMORS, Dose [Carcinogen]: 2 NMOL 1/WK FOR 10 WK, Promoter: 12-O-TETRADECANOYLPHORBOL-13-ACETATE, 16561-29-8): 100%, 98%, 2%, not calculated | tumour outcome (control, treated, inhibition, significance) (Carcinogen: 7,12-DIMETHYLBENZ[A]ANTHRACENE, 57-97-6, Dose [Inhibitor]: 10 UMOL IN 200 µL ACETONE 2/WK FOR 19 WK BEGINNING 1 WK POST CARCINOGEN DOSE (STUDY DURATION: 20 WK), Route [Inhibitor]: DERMAL, Species: MOUSE, Strain/Sex: CD-1/FEMALE, Target Tissue: Type of Lesion: SKIN: PAPILLOMA, Dose [Carcinogen]: 200 NMOL IN 200 µL ACETONE ONCE, Promoter: 12-O-TETRADECANOYLPHORBOL-13-ACETATE, 16561-29-8): 68%, 0%, 100%, not calculated
